Active and inactive are the calls of the source. The rule behind the calls is not given here.
How the values were obtained:
[1] = test system: Human immunodeficiency virus 1; experiment: Antiviral activity against HIV1 expressing protease L10F/D30N/K45I/A71V/T74S mutant infected in human MT4 cells selected at 5 uM of nelfinavir by MTT assay; assay type: functional, organism-based; settings: Human immunodeficiency virus 1, MT4
[2] = test system: Human immunodeficiency virus 1; experiment: Antiviral activity against wild type HIV1 NL4-3 infected in human MT4 cells by p24 Gag protein production inhibition assay; settings: Human immunodeficiency virus 1, NL4-3, MT4
[3] = test system: Human immunodeficiency virus 1; experiment: Antiviral activity against wild type HIV1 ERS104 containing protease L63P mutant infected in human PHA-PBMC cells by p24 Gag protein production inhibition assay; settings: Human immunodeficiency virus 1, ERS104, PBMC
[4] = test system: Human immunodeficiency virus 1; experiment: Antiviral activity against HIV1 expressing protease L10F/M46I/I54V/V82A mutant infected in human MT4 cells selected at 5 uM of Lopinavir by p24 Gag protein production inhibition assay; settings: Human immunodeficiency virus 1, MT4
[5] = test system: Human immunodeficiency virus 1; experiment: Antiviral activity against HIV1 expressing protease L10I/G48V/I54V/A71V/I84V/L90M mutant infected in human MT4 cells selected at 5 uM of saquinavir by p24 Gag protein production inhibition assay; settings: Human immunodeficiency virus 1, MT4
[6] = test system: Human immunodeficiency virus 1; experiment: Antiviral activity against HIV1 expressing protease L10F/M46I/I50V/A71V/I84V/L90M mutant infected in human MT4 cells selected at 5 uM of amprenavir by p24 Gag protein production inhibition assay; settings: Human immunodeficiency virus 1, MT4
[7] = test system: Human immunodeficiency virus 1; experiment: Antiviral activity against HIV1 expressing protease L23I/E34Q/K43I/M46I/I50L/G51A/L63P/A71V/V82A/T91A mutant infected in human MT4 cells selected at 5 uM of atazanavir by p24 Gag protein production inhibition assay; settings: Human immunodeficiency virus 1, MT4
[8] = test system: Human immunodeficiency virus 1; experiment: Antiviral activity against multidrug-resistant HIV1 isolate MM containing L10I, K43T, M46L, I54V, L63P, A71V, V82A, L90M, and Q92K mutant infected in human PHA-PBMC cells by p24 Gag protein production inhibition assay; settings: Human immunodeficiency virus 1, isolate MM
[9] = test system: Human immunodeficiency virus 1; experiment: Antiviral activity against multidrug-resistant HIV1 isolate TM containing L10I, K14R, R41K, M46L, I54V, L63P, A71V, V82A, L90M, and I93L mutant infected in human PHA-PBMC cells by p24 Gag protein production inhibition assay; settings: Human immunodeficiency virus 1, isolate TM
[10] = test system: Human immunodeficiency virus 1; experiment: Antiviral activity against multidrug-resistant HIV1 isolate G containing L10I, V11I, T12E, I15V, L19I,R41K, M46L, L63P, A71T, V82A, and L90M mutant infected in human PHA-PBMC cells by p24 Gag protein production inhibition assay; settings: Human immunodeficiency virus 1, isolate G
[11] = test system: Human immunodeficiency virus 1; experiment: Antiviral activity against multidrug-resistant HIV1 isolate C containing protease L10I, I15V, K20R, L24I, M36I, M46L, I54V, I62V, L63P, K70Q, V82A, and L89M mutant infected in human PHA-PBMC cells by p24 Gag protein production inhibition assay; settings: Human immunodeficiency virus 1, isolate C
[12] = test system: Human immunodeficiency virus 1; experiment: Antiviral activity against multidrug-resistant HIV1 isolate JSL containing L10I, L24I, I33F, E35D, M36I, N37S, M46L, I54V, R57K, I62V, L63P, A71V, G73S, and V82A mutant infected in human PHA-PBMC cells by p24 Gag protein production inhibition assay; settings: Human immunodeficiency virus 1, isolate JSL
[13] = test system: Human immunodeficiency virus 1; experiment: Antiviral activity against multidrug-resistant HIV1 isolate B containing protease L10I, K14R, L33I, M36I,M46I, F53I, K55R, I62V, L63P, A71V, G73S, V82A, L90M, and I93L mutant infected in human PHA-PBMC cells by p24 Gag protein production inhibition assay; settings: Human immunodeficiency virus 1, isolate B
[14] = test system: Human immunodeficiency virus 2; experiment: Antiviral activity against HIV2 ROD infected in human MT2 cells by MTT assay; assay type: functional, organism-based; settings: Human immunodeficiency virus 2, ISOLATE ROD
[15] = test system: Human immunodeficiency virus 1; experiment: Antiviral activity against HIV1 expressing protease L10F/M46I/T91S mutant infected in human MT4 cells selected at 1 uM of GRL-246 by MTT assay; assay type: functional, organism-based; settings: Human immunodeficiency virus 1, MT4
[16] = test system: Human immunodeficiency virus 1; experiment: Antiviral activity against HIV1 expressing protease L10F/M46M,I/Q61Q mutant infected in human MT4 cells selected at 1 uM of GRL-396 by MTT assay; assay type: functional, organism-based; settings: Human immunodeficiency virus 1, MT4
[17] = test system: Human immunodeficiency virus 1; experiment: Antiviral activity against HIV1 LAI infected in human MT2 cells by MTT assay; assay type: functional, organism-based; settings: Human immunodeficiency virus 1, LAI
[18] = Cytotoxicity against human MT2 cells after 7 days by MTT assay; assay type: cell-based
[19] = Selectivity ratio of CC50 for human MT2 cells to EC50 for HIV1 LAI infected human MT2 cells; assay type: ADME, cell-based; settings: MT2 cells (CC50) and HIV1 LAI infected MT2 cells (EC50)
[20] = test system: Human immunodeficiency virus 1; experiment: Antiviral activity against HIV1 NL4-3 infected in human MT4 cells at 1 uM after 20 passages by MTT assay; assay type: functional, organism-based
[21] = test system: Human immunodeficiency virus 1; experiment: Antiviral activity against HIV1 NL4-3 infected in human MT4 cells at 1 uM after 33 passages by MTT assay; assay type: functional, organism-based
[22] = test system: Human immunodeficiency virus 1; experiment: Antiviral activity against HIV1 NL4-3 infected in human MT4 cells at 1 uM after 37 passages by MTT assay; assay type: functional, organism-based
[23] = test system: Human immunodeficiency virus 1; experiment: Antiviral activity against HIV1 NL4-3 infected in human MT4 cells after 50 passages by MTT assay; assay type: functional, organism-based
[24] = test system: Human immunodeficiency virus 1; experiment: Antiviral activity against HIV1 expressing protease L10I/L24I/M46I/V82I/I84V mutant infected in human MT4 cells selected after 50 passages of GRL-216 by MTT assay; assay type: functional, organism-based; settings: Human immunodeficiency virus 1, MT4
[25] = test system: Human immunodeficiency virus 1; experiment: Antiviral activity against HIV1 expressing protease L10F/M46L/I50V/A71Vmutant infected in human MT4 cells selected at 1 uM of GRL-286 by MTT assay; assay type: functional, organism-based; settings: Human immunodeficiency virus 1, MT4
[26] = test system: Human immunodeficiency virus type 1 protease (Human immunodeficiency virus 1), Q72874 [L24I,V82I,I84V]; experiment: Inhibition of protease L24I/V82I/I84V[…] dimerization in HIV1 infected in COS7 cells at 0.1 uM by FRET based assay; assay type: cell-based; settings: COS-7
[27] = test system: Human immunodeficiency virus 2; experiment: Antiviral activity against HIV2 EHO infected in human MT2 cells by MTT assay; assay type: functional, organism-based; settings: Human immunodeficiency virus 2, EHO
MT2 [28] = experiment: Ratio of EC50 for HIV2 EHO to EC50 for HIV1 LAI infected in human MT2 cells; assay type: functional
MT2 [29] = experiment: Ratio of EC50 for HIV2 ROD to EC50 for HIV1 LAI infected in human MT2 cells; assay type: functional

Compound	EC50 [1] [nM]	EC50 [2] [nM]	EC50 [3] [nM]	EC50 [4] [nM]	EC50 [5] [nM]	EC50 [6] [nM]	EC50 [7] [nM]	EC50 [8] [nM]	EC50 [9] [nM]	EC50 [10] [nM]	EC50 [11] [nM]	EC50 [12] [nM]	EC50 [13] [nM]	EC50 [14] [nM]	EC50 [15] [nM]	EC50 [16] [nM]	EC50 [17] [nM]	CC50 at 168 h [18] [nM]	EC50 [24] [nM]	EC50 [25] [nM]	further results
CC(C)(C)NC(=O)[C@@H]1C[C@@H]2CCCC[C@@H]2CN1C[C@@H](O)[C@H](Cc1ccccc1)NC(=O)[C@H](CC(N)=O)NC(=O)c1ccc2ccccc2n1	3	5	8	28	> 1000	26	31	190	260	30	32	300	270								
CC(C)CN(C[C@@H](O)[C@H](Cc1ccccc1)NC(=O)O[C@H]1CO[C@H]2OCC[C@H]21)S(=O)(=O)c1ccc(N)cc1				25		290								10	29	16					
COc1ccc2c(c1)OC/C=C/CCCCN(C[C@@H](O)[C@H](Cc1ccccc1)NC(=O)O[C@H]1CO[C@H]3OCC[C@H]31)S2(=O)=O															370	520	14	44900	240	> 1000	selectivity ratio [19]: 3200; Activity [20]: inactive; Activity [21]: inactive; Activity [22]: inactive; Activity [23]: inactive; inhibition [26]: Active
Cc1c(O)cccc1C(=O)N[C@@H](CSc1ccccc1)[C@H](O)CN1C[C@H]2CCCC[C@H]2C[C@H]1C(=O)NC(C)(C)C	> 1000			320	510	300	> 1000								290	220			130		
COc1ccc2c(c1)OCCCCCCCCN(C[C@@H](O)[C@H](Cc1ccccc1)NC(=O)O[C@H]1CO[C@H]3OCC[C@H]31)S2(=O)=O															420	370	22	33300	260	> 1000	Activity [20]: inactive; Activity [21]: inactive; Activity [22]: inactive; Activity [23]: inactive
Cc1cccc(C)c1OCC(=O)N[C@@H](Cc1ccccc1)[C@@H](O)C[C@H](Cc1ccccc1)NC(=O)[C@H](C(C)C)N1CCCNC1=O [LOPINAVIR]	37	46	34	> 1000	120	> 1000	> 1000	> 1000	> 1000		> 1000	> 1000	> 1000	28	330	280	39	> 100000	190	> 1000	EC50 [27]: 35 nM
COC(=O)N[C@H](C(=O)N[C@@H](Cc1ccccc1)[C@@H](O)CN(Cc1ccc(-c2ccccn2)cc1)NC(=O)[C@@H](NC(=O)OC)C(C)(C)C)C(C)(C)C [ATAZANAVIR]	27	4	2	36	210	6	> 1000	180	65	33	65	430	200		32	24			14		
CCC[C@@]1(CCc2ccccc2)CC(O)=C([C@H](CC)c2cccc(NS(=O)(=O)c3ccc(C(F)(F)F)cn3)c2)C(=O)O1	39	320	120	310	22	220	410	350	380	240	380	230	180	330	95	42	170	54100	29	37	EC50 [27]: 300 nM; selectivity ratio [19]: 320
CC(C)(C)NC(=O)[C@@H]1CN(Cc2cccnc2)CCN1C[C@@H](O)C[C@@H](Cc1ccccc1)C(=O)N[C@H]1c2ccccc2C[C@H]1O			43					> 1000	> 1000	340	> 1000	> 1000	> 1000								
CC(C)CN(C[C@@H](O)[C@H](Cc1ccccc1)NC(=O)O[C@H]1CCOC1)S(=O)(=O)c1ccc(N)cc1	28	34	30	260	180	> 1000	280	210	320	430	370	620	> 1000	420	340	350	24	> 100000	260	> 1000	EC50 [27]: 120 nM; Ratio EC50 (MT2 [28]): 3.53; Ratio EC50 (MT2 [29]): 12.3; Activity [20]: inactive; Activity [21]: inactive; Activity [22]: inactive; Activity [23]: inactive
